Entries after “also recorded” stand apart in the source; their conditions may differ.
Legend:
HCAR3 [1] = biological target: T1, HCAR3 (Homo sapiens, UniProt P49019); details: literature value; read-out: EC50 at HCAR3 observed by Colosimo et al.; cited from earlier work
[2] = system: 300-plex of GPCR-Gα reporter strains; experiment: dCyFIRplex FACS sorting of agonist-treated 300-plex; assay type: cell-based, Saccharomyces cerevisiae; details: following agonist treatment
Procedure: dCyFIRplex protocol. […] 10× ligand/vehicle stocks were added to individual wells of a DeepWell block. The consolidated 300-plex or control strains were then added to each well and grown in the presence of ligand/vehicle overnight, so that each culture would reach an OD=4.0 before dCyFIRplex profiling. Samples were washed with sterile ddH2O and normalized to an OD=2.0 in SCD LoFo pH=7.0. Tracer cells were added to each sample at a 1:301 ratio. The final mixture was then transferred into a glass sample tube (USA Scientific; 1450-2810) and used for cell sorting. A BD FACSAria-II cell sorter was used for all dCyFIRplex experiments to assess mTq2 (405 nm excitation, 450/50 nm emission) and mRuby3 fluorescence (535 nm excitation, 610/20 nm emission). A gating strategy was set using the three control samples (DI P1 mTq2, individual Gα reporter strains lacking an integrated receptor, and DI P1 mRuby3) such that tracer cells and any cell expressing mTq2 was sorted into a 14 mL collection tube (USA Scientific; 1485-2810) containing 500 μL YPD. Samples treated with water or 500 μM adenosine (well-characterized using dCyFIRscreen, inexpensive, and water-soluble) were used to build a standard curve measuring total events in the mRuby3 and mTq2 positive gates. The standard curve from a water-treated 300-plex was used to determine the number of tracer events that would correspond to 15,000 events in the mTq2 gate for a water-treated 300-plex. Each sample was sorted until the standardized tracer count was reached. Sorted cells were enriched by outgrowth in 5 mL YPD at 30° C. with shaking (200 rpm) for 18 hours. Cells were harvested by centrifugation at 3,000×g for 5 min, and resuspended in 1 mL ddH2O. Cells were either processed immediately for qPCR deconvolution or frozen in 100 μL aliquots for storage at −20° C. The set of samples comparatively deconvoluted by qPCR and NanoString methods were derived from aliquots of the same dCyFIRplex experiments. […]

HCAR2 = biological target: T2, HCAR2 (Homo sapiens, UniProt Q8TDS4); experiment: dCyFIRscreen profiling in yeast GPCR-Gα reporter strains; assay type: cell-based
T2 construct: expressed in transfected cells; host or cells: Saccharomyces cerevisiae BY4741-derived GPCR-Gα reporter strains, X-2 landing pad
T2 sequence (Q8TDS4 whole entry): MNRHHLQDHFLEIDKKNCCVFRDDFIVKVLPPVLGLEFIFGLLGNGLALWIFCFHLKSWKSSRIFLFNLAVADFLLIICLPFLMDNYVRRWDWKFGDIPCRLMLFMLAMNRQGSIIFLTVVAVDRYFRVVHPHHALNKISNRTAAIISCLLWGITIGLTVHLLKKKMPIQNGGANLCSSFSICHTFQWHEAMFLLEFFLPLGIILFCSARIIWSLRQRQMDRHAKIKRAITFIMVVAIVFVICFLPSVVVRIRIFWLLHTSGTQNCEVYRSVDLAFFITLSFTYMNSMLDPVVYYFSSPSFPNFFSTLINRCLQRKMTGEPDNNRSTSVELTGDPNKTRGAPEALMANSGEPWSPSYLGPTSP
Procedure: (§1) Individual Gα reporter strains were grown in SCD LoFo pH=7.0 at 30° C. to an OD=1.0 in a 2.0 mL 96-well DeepWell block (Greiner; 780271-FD). Cells were normalized to an OD of 0.1 in SCD LoFo pH=7.0 using a Biomek NXp liquid-handling robot. 10× ligand/vehicle stocks were prepared (see Table 2) and 4 μL were distributed to each well of a 384-well plate (Greiner; 781096) in quadruplicate using a Biomek NXp. 36 μL normalized cells were distributed to each well containing the appropriate 10× ligand/vehicle. Plates were sealed with a breathable cover (Diversified Biotech; BERM-2000) and incubated at 30° C. Fluorescence readings were collected after 18 hours using a plate reader (ClarioStar, BMG LabTech, Offenburg, Germany) (bottom read, 10 flashes/well, excitation filter: 430-10 nm, dichroic filter: LP 458 nm, emission filter: 482-16 nm, gain=1300 (1500 for FIG. 1B.)). Absorbance readings were also collected after 18 hours using the same instrument (22 flashes/well, excitation filter: 600 nm).

LPAR1 = biological target: T3, LPAR1 (Homo sapiens, UniProt Q92633); experiment: dCyFIRscreen profiling and titrations in yeast GPCR-Gα reporter strains; assay type: cell-based
T3 construct: expressed in transfected cells; host or cells: Saccharomyces cerevisiae BY4741-derived GPCR-Gα reporter strains, X-2 landing pad
T3 sequence (Q92633 whole entry): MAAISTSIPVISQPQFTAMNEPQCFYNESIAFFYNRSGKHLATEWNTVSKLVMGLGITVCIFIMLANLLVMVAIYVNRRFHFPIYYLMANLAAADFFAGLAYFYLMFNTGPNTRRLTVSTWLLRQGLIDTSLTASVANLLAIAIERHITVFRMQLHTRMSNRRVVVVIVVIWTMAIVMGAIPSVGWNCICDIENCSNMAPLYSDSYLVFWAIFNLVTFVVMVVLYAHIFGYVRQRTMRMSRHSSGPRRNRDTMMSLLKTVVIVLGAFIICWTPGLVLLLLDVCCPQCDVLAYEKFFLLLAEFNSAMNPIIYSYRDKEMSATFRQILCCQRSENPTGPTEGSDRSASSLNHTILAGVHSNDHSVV
Procedure: as §1
(§2) All titration curves were analyzed using Prism software and the pharmacological fitting function log(agonist) vs. response—Variable slope (four parameters) (GraphPad Software, San Diego, USA).

ADORA2A = biological target: T4, ADORA2A (Homo sapiens, UniProt P29274); experiment: as above; assay type: cell-based
T4 construct: expressed in transfected cells; host or cells: Saccharomyces cerevisiae BY4741-derived GPCR-Gα reporter strains, X-2 landing pad
T4 sequence (P29274 whole entry): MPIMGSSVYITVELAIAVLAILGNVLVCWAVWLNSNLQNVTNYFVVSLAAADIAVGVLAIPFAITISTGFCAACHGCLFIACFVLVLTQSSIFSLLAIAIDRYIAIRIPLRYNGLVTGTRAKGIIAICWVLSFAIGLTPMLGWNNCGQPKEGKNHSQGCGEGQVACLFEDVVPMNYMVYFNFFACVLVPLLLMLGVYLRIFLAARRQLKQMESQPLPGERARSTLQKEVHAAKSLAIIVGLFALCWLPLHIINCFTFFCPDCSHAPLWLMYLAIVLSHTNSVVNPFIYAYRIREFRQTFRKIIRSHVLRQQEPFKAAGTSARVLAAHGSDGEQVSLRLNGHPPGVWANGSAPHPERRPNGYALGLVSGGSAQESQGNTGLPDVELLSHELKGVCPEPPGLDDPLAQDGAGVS
Procedure: as §1, §2

GPR35 = biological target: T5, GPR35 (Homo sapiens, UniProt Q9HC97); experiment: as above; assay type: cell-based
T5 construct: expressed in transfected cells; host or cells: Saccharomyces cerevisiae BY4741-derived GPCR-Gα reporter strains, X-2 landing pad
T5 sequence (Q9HC97 whole entry): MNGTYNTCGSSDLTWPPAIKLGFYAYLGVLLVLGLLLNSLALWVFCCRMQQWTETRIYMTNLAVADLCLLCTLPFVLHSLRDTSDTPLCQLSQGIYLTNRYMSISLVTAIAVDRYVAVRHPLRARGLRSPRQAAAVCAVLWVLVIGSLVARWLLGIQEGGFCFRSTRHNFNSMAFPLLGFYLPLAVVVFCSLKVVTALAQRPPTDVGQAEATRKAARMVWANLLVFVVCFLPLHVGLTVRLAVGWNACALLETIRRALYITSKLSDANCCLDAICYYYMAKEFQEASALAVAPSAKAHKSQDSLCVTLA
Procedure: as §1, §2

GPR4 = biological target: T6, GPR4 (Homo sapiens, UniProt P46093); experiment: dCyFIRscreen profiling in yeast GPCR-Gα reporter strains; assay type: cell-based
T6 construct: expressed in transfected cells; host or cells: Saccharomyces cerevisiae BY4741-derived GPCR-Gα reporter strains, X-2 landing pad
T6 sequence (P46093 whole entry): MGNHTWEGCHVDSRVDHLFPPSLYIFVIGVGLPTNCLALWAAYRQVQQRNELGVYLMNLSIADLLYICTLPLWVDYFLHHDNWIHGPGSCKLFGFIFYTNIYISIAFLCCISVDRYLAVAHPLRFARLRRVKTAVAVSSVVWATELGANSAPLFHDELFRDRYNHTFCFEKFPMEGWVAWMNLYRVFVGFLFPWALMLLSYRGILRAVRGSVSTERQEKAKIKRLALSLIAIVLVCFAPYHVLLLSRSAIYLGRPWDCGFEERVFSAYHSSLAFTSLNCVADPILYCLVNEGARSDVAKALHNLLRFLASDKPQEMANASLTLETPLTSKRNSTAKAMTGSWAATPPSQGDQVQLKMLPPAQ
Procedure: as §1

GPR68 = biological target: T7, GPR68 (Homo sapiens, UniProt Q15743); experiment: dCyFIRscreen profiling and titrations in yeast GPCR-Gα reporter strains; assay type: cell-based
T7 construct: expressed in transfected cells; host or cells: Saccharomyces cerevisiae BY4741-derived GPCR-Gα reporter strains, X-2 landing pad
T7 sequence (Q15743 whole entry): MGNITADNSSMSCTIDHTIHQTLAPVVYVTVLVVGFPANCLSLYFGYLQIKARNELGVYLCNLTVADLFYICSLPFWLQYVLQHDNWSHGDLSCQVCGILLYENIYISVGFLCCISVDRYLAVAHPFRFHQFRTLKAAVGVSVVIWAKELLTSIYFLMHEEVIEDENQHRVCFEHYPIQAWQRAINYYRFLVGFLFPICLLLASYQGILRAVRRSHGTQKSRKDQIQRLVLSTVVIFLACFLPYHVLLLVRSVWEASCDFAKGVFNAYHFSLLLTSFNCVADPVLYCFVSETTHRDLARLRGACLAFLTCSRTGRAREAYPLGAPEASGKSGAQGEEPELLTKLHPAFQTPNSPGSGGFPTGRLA
Procedure: as §1, §2

HCAR3 [3] = biological target: T1, HCAR3; experiment: as above; assay type: cell-based; design: expressed in transfected cells
Procedure: as §1, §2

LPAR4 = biological target: T8, LPAR4 (Homo sapiens, UniProt Q99677); experiment: dCyFIRscreen profiling in yeast GPCR-Gα reporter strains; assay type: cell-based
T8 construct: expressed in transfected cells; host or cells: Saccharomyces cerevisiae BY4741-derived GPCR-Gα reporter strains, X-2 landing pad
T8 sequence (Q99677 whole entry): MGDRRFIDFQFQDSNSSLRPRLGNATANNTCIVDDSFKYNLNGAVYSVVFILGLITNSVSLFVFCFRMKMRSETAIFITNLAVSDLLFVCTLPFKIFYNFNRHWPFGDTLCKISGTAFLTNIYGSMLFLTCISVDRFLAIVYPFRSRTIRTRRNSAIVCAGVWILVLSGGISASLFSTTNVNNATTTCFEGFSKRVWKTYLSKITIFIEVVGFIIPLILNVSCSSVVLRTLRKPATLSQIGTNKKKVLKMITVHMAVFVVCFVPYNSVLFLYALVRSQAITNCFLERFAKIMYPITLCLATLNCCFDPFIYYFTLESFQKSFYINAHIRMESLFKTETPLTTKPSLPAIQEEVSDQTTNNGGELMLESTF
Procedure: as §1

ADRA2B = biological target: T9, ADRA2B (Homo sapiens, UniProt P18089); experiment: dCyFIRscreen profiling and titrations in yeast GPCR-Gα reporter strains; assay type: cell-based
T9 construct: expressed in transfected cells; host or cells: Saccharomyces cerevisiae BY4741-derived GPCR-Gα reporter strains, X-2 landing pad
T9 sequence (P18089 1-450): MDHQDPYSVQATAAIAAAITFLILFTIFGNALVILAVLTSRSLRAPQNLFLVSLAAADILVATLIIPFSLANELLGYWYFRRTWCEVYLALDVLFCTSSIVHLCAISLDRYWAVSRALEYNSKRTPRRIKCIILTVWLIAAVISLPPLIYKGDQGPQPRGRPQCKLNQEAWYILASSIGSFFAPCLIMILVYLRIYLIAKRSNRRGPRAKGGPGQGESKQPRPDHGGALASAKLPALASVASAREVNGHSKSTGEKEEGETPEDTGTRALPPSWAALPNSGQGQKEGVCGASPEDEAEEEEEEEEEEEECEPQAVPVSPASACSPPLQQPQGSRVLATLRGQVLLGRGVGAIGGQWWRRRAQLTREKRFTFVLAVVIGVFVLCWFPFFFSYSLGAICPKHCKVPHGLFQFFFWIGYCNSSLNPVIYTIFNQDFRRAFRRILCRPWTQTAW
Procedure: dCyFIRscreen protocol. […] Cells were normalized to an OD of 0.1 in SCD LoFo pH=7.0 using a Biomek NXp liquid-handling robot. […] 36 μL normalized cells were distributed to each well containing the appropriate 10× ligand/vehicle. Plates were sealed with a breathable cover (Diversified Biotech; BERM-2000) and incubated at 30° C. […] Absorbance readings were also collected after 18 hours using the same instrument (22 flashes/well, excitation filter: 600 nm).
Titration Analyses. All titration curves were analyzed using Prism software and the pharmacological fitting function log(agonist) vs. response—Variable slope (four parameters) (GraphPad Software, San Diego, USA).

CNR2 = biological target: T10, CNR2 (Homo sapiens, UniProt P34972); experiment: dCyFIRscreen profiling in yeast GPCR-Gα reporter strains; assay type: cell-based
T10 construct: expressed in transfected cells; host or cells: Saccharomyces cerevisiae BY4741-derived GPCR-Gα reporter strains, X-2 landing pad
T10 sequence (P34972 whole entry): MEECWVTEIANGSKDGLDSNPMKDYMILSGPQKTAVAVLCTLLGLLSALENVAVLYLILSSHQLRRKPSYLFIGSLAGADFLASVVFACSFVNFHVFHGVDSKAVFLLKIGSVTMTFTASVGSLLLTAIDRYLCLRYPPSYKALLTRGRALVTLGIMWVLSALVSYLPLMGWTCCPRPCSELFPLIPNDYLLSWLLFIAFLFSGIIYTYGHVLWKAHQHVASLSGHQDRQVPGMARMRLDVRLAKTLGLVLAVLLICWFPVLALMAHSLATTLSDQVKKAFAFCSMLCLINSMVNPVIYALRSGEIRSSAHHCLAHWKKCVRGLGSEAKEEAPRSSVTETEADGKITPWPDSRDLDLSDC
Procedure: as §1

GPR65 = biological target: T11, GPR65 (Homo sapiens, UniProt Q8IYL9); experiment: dCyFIRscreen profiling and titrations in yeast GPCR-Gα reporter strains; assay type: cell-based
T11 construct: expressed in transfected cells; host or cells: Saccharomyces cerevisiae BY4741-derived GPCR-Gα reporter strains, X-2 landing pad
T11 sequence (Q8IYL9 whole entry): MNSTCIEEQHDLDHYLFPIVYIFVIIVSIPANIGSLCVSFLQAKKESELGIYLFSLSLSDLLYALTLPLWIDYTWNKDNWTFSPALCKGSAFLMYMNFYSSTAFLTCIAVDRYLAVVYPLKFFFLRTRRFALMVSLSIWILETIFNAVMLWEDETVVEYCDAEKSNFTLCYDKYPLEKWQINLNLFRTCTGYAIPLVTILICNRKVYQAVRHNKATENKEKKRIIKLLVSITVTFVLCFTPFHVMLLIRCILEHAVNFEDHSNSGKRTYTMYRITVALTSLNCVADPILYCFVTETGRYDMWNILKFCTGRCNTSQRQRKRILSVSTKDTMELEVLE
Procedure: as §1, §2

S1PR2 = biological target: T12, S1PR2 (Homo sapiens, UniProt O95136); experiment: as above; assay type: cell-based
T12 construct: expressed in transfected cells; host or cells: Saccharomyces cerevisiae BY4741-derived GPCR-Gα reporter strains, X-2 landing pad
Procedure: as §1, §2

S1PR1 = biological target: T13, S1PR1 (Homo sapiens, UniProt P21453); experiment: as above; assay type: cell-based
T13 construct: expressed in transfected cells; host or cells: Saccharomyces cerevisiae BY4741-derived GPCR-Gα reporter strains, X-2 landing pad
T13 sequence (P21453 whole entry): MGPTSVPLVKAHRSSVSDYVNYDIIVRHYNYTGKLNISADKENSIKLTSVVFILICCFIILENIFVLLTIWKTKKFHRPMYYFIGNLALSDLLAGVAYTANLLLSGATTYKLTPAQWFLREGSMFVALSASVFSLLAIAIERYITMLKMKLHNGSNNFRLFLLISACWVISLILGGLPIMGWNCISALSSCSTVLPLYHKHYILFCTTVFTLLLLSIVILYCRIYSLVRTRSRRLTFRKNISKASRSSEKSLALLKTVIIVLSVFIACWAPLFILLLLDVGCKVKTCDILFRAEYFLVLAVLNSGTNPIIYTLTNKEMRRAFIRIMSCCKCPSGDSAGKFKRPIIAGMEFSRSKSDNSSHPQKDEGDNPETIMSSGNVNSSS
Procedure: as §1, §2

MTNR1B = biological target: T14, MTNR1B (Homo sapiens, UniProt P49286); experiment: dCyFIRscreen profiling in yeast GPCR-Gα reporter strains; assay type: cell-based
T14 construct: expressed in transfected cells; host or cells: Saccharomyces cerevisiae BY4741-derived GPCR-Gα reporter strains, X-2 landing pad
T14 sequence (P49286 1-362): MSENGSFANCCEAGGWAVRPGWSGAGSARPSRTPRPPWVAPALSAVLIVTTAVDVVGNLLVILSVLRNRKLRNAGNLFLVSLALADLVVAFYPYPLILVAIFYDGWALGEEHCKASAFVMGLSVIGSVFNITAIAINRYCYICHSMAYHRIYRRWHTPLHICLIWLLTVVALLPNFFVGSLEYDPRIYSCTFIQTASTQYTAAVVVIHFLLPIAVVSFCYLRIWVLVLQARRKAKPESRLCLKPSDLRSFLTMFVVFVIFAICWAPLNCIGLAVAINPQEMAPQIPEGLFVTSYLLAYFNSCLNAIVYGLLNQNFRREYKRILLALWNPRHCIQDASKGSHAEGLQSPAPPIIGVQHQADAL
Procedure: as §1, §2

HTR4 = biological target: T15, HTR4 (Homo sapiens, UniProt Q13639); experiment: dCyFIRscreen profiling and titrations in yeast GPCR-Gα reporter strains; assay type: cell-based
T15 construct: expressed in transfected cells; host or cells: Saccharomyces cerevisiae BY4741-derived GPCR-Gα reporter strains, X-2 landing pad
T15 sequence (Q13639 whole entry): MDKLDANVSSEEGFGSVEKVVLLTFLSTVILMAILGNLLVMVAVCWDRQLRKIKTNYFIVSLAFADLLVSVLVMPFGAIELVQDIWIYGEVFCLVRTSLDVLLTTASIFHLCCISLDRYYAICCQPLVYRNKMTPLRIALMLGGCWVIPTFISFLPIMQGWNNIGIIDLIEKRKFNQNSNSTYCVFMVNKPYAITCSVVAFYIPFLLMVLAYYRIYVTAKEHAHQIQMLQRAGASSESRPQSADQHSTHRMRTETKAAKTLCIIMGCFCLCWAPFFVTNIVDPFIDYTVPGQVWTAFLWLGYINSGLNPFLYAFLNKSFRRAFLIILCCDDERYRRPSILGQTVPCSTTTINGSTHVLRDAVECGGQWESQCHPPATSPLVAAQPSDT
Procedure: (§3) dCyFIRscreen protocol. Individual Gα reporter strains were grown in SCD LoFo pH=7.0 at 30° C. to an OD=1.0 in a 2.0 mL 96-well DeepWell block (Greiner; 780271-FD). Cells were normalized to an OD of 0.1 in SCD LoFo pH=7.0 using a Biomek NXp liquid-handling robot. 10× ligand/vehicle stocks were prepared (see Table 2) and 4 μL were distributed to each well of a 384-well plate (Greiner; 781096) in quadruplicate using a Biomek NXp. 36 μL normalized cells were distributed to each well containing the appropriate 10× ligand/vehicle. Plates were sealed with a breathable cover (Diversified Biotech; BERM-2000) and incubated at 30° C. Fluorescence readings were collected after 18 hours using a plate reader (ClarioStar, BMG LabTech, Offenburg, Germany) (bottom read, 10 flashes/well, excitation filter: 430-10 nm, dichroic filter: LP 458 nm, emission filter: 482-16 nm, gain=1300 (1500 for FIG. 1B.)). Absorbance readings were also collected after 18 hours using the same instrument (22 flashes/well, excitation filter: 600 nm).
as §2

MTNR1A = biological target: T16, MTNR1A (Homo sapiens, UniProt P48039); experiment: as above; assay type: cell-based
T16 construct: expressed in transfected cells; host or cells: Saccharomyces cerevisiae BY4741-derived GPCR-Gα reporter strains, X-2 landing pad
T16 sequence (P48039 whole entry): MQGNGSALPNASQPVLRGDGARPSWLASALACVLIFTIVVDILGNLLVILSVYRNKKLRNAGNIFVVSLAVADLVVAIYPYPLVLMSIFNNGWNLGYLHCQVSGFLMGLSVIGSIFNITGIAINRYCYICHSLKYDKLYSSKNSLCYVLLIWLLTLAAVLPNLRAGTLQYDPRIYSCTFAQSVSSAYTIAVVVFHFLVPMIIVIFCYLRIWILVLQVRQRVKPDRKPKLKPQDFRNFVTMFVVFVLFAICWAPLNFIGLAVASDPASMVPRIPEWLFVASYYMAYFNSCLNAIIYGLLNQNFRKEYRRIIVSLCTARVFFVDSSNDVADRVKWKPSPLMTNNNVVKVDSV
Procedure: as §1, §2

[4] = system: 20 GPCRs (200 GPCR-Gα strains); experiment: control dCyFIRscreen profiles against 20 GPCRs (200 GPCR-Gα strains); assay type: cell-based, human; details: 20 GPCRs incl. all 15 constitutively active receptors
Procedure: as §3

T1 sequence (P49019 whole entry): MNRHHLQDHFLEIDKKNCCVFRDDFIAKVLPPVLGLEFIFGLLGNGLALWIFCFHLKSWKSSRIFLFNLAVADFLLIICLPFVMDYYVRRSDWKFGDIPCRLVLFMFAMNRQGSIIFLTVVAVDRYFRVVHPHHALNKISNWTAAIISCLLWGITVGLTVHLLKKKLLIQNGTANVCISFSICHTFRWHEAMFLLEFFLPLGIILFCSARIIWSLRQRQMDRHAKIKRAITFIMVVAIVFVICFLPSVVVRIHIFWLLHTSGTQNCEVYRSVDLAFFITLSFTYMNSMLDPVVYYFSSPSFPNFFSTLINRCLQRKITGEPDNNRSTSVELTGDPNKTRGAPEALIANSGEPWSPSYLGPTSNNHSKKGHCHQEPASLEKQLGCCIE

## O=C(O)CCc1ccccc1 [phenylpropanoic acid]
HCAR3 [1]
  EC50: 208 µM

## C[C@H](N)C(=O)NCC(=O)N[C@H]1CSSC[C@@H](C(=O)O)NC(=O)[C@H](CO)NC(=O)[C@H]([C@@H](C)O)NC(=O)[C@H](Cc2ccccc2)NC(=O)[C@H]([C@@H](C)O)NC(=O)[C@H](CCCCN)NC(=O)[C@H](Cc2c[nH]c3ccccc23)NC(=O)[C@H](Cc2ccccc2)NC(=O)[C@H](Cc2ccccc2)NC(=O)[C@H](CC(N)=O)NC(=O)[C@H](CCCCN)NC1=O [SRIF-14, Somatostatin-14]
[2]
  active cell pool, fraction of cell-sorting events for the 300-plex: 1.5%

## C[C@]12CC[C@H](O)CC1=CC[C@@H]1[C@@H]2CC[C@]2(C)C(=O)CC[C@@H]12 [DHEA, dehydroepiandrosterone]
HCAR2
  activity at HCAR2 in words (mode of action): increase receptor signaling
LPAR1
  activity at LPAR1 in words (mode of action): increase receptor signaling
ADORA2A
  activity at ADORA2A in words (mode of action): increase receptor signaling
GPR35
  activity at GPR35 in words (mode of action, potency range): increase receptor signaling; also recorded: PAM-agonist
GPR4
  activity at GPR4 in words (mode of action): increase receptor signaling and PAMs
GPR68
  activity at GPR68 in words (mode of action): increase receptor signaling and PAMs
HCAR3 [3]
  activity at HCAR3 in words (mode of action, potency range): increase receptor signaling and PAM-agonist and PAMs
LPAR4
  activity at LPAR4 in words (mode of action): increase receptor signaling

## C[C@]12CC[C@@H](O)C[C@@H]1CC[C@@H]1[C@@H]2CC[C@]2(C)C(=O)CC[C@@H]12 [androsterone]
HCAR2
  activity at HCAR2 in words (mode of action): increase receptor signaling
LPAR1
  activity at LPAR1 in words (mode of action): increase receptor signaling
ADORA2A
  activity at ADORA2A in words (mode of action): increase receptor signaling
GPR35
  activity at GPR35 in words (mode of action, potency range): increase receptor signaling
GPR4
  activity at GPR4 in words (mode of action): increase receptor signaling and PAMs
GPR68
  activity at GPR68 in words (mode of action): increase receptor signaling and PAMs
HCAR3 [3]
  activity at HCAR3 in words (mode of action, potency range): increase receptor signaling and PAMs
LPAR4
  activity at LPAR4 in words (mode of action): increase receptor signaling

## NCCc1ccc(O)c(O)c1 [dopamine]
ADRA2B
  activity at ADRA2B in words (mode of action, potency range): micromolar agonist

## O[C@H]1[C@H](O)[C@@H](O)[C@H](O)[C@@H](O)[C@H]1O [inositol]
CNR2
  activity at CNR2 in words (mode of action): increase receptor signaling
ADORA2A
  activity at ADORA2A in words (mode of action): increase receptor signaling; also recorded: NAM-agonist
GPR35
  activity at GPR35 in words (mode of action, potency range): increase receptor signaling; also recorded: PAM-agonist
GPR65
  activity at GPR65 in words (mode of action): increase receptor signaling and PAM-agonist and PAMs
GPR68
  activity at GPR68 in words (mode of action): increase receptor signaling and PAM-agonist and PAMs

## CCCCCCCCCCC/C=C\CCCCC(=O)O [petroselinic acid]
LPAR1
  activity at LPAR1 in words (mode of action): agonist specific for
S1PR2
  activity at S1PR2 in words (mode of action, potency range): agonist specific for
S1PR1
  activity at S1PR1 in words (mode of action, potency range): agonist specific for

## NCCc1c[nH]c2ccccc12 [tryptamine]
MTNR1B
  activity at MTNR1B in words (mode of action): did not activate
ADRA2B
  activity at ADRA2B in words (mode of action, potency range): did activate
ADRA2B; titration
  EC50 at ADRA2B (in words): micromolar range
HTR4
  activity at HTR4 in words (mode of action): did activate
HTR4; titration
  EC50 at HTR4 (in words): micromolar range
MTNR1A
  activity at MTNR1A in words (mode of action, potency range): did not activate

## C[C@]12CC[C@H](OS(=O)(=O)O)CC1=CC[C@@H]1[C@@H]2CC[C@]2(C)C(=O)CC[C@@H]12 [DHEA-S]
[4]
  response in control dCyFIRscreen profiles: Neither of these ligands elicited responses

Reference: patent US20230053864A1, “Methods for Identifying Modulators of G Protein-Coupled Receptors” (University of Miami, priority 2019, published 2023)
